Converted amounts (≈) assume the structure as drawn. “Also recorded” adds a separate entry of the source. Like-named read-outs stand apart in the source and are kept apart here.
Columns and labels:
[1] = assay type: physicochemical; details: for stability of the crystalline form in words: XRPD, ambient conditions
Method: A PANalytical Empyrean X-ray powder diffractometer with a 12-well auto-sampler stage was used for analysis throughout this study. Resolution calibration of the instrument was performed every 6 months, and sensitivity measurements were performed after the sample stage was changed. A silicon (Si) pressed powder sample was used as the reference standard.
The wet cake of Form P (˜5 min air) was dried in two ways: (a) under air at room temperature overnight, and (b) under vacuum at 40° C. for 3 hours. Both dried cakes were analyzed by XRPD, 1H-NMR, and TGA.

[2] = assay type: physicochemical
Method: In each experiment, approximately 10 to 20 mg of Form A was suspended in 0.5 mL of a solvent or mixture of solvents. After stirring at RT or 50° C. for 48 hours, the solids were isolated by centrifugation for analysis (wet sample). If the suspensions turned into clear solution, the clear solutions were kept at ambient conditions for slow evaporation.
In one embodiment, the inter-conversion between Forms A, C and K can be studied in a series of slurry conversion experiments conducted in ethyl acetate, n-butanol, and methyl tert-butyl ether (MBTE) at both room temperature (RT) and 50° C. Compound 1 can display moderate solubility, and may yield solvated forms during these screening experiments. The transition temperature between Forms A and C was estimated to be ˜17° C., and the transition temperature between Forms K and C was above 100° C.

[3] = Hygroscopicity by dynamic vapor sorption (DVS); assay type: physicochemical; details: for water uptake at 80% RH / water uptake at 95% RH: DVS isotherm; for water uptake at 80% RH / water uptake at 95% RH / form change before and after DVS (XRPD) / hygroscopicity: 25° C.; for form change before and after DVS (XRPD) / hygroscopicity / water uptake at RH less than or equal to 95%: DVS; for water uptake at RH less than or equal to 95%: RH less than or equal to 95% (description section)
Method: Dynamic vapor sorption (DVS) was measured via an SMS (Surface Measurement Systems) DVS Intrinsic system. The relative humidity at 25° C. was calibrated against the deliquescence point of LiCl, Mg(NO3)2, and KCl.
The hygroscopicity of Form A, Form C, and Form K were investigated at 25° C. using DVS. The XRPD patterns of each sample before and after DVS were compared in order to investigate any potential form change.

[4] = Equilibrium solubility of Forms A, C and P in ethyl acetate; assay type: physicochemical
Method: (§1) Solubility profiles of Forms A, C and P across a range of temperature can give an indication of the relative stability of different forms within different temperature ranges. Sufficient equilibrium solubility data were collected experimentally covering 5-70° C.

[5] = Crystal form and relative stability of slurried solids in EtOAc, checked by XRPD; assay type: physicochemical; details: for Crystal Form Checked by XRPD: ethyl acetate
Method: During solubility measurements, an XRPD pattern was detected in (a) slurries of Form A in EtOAc at 5° C. (after 1 h) and 20° C. (after 2 days), (b) slurries of Form C in EtOAc at 5° C. (after 1 h) and 20° C. (after 7 days). There was no direct match of this solid form's XRPD pattern to other crystal forms of Compound 1.
as §1

## C[C@@]1(O)CC[C@H]2[C@H](CC[C@@H]3[C@@H]2CC[C@]2(C)[C@@H](C(=O)Cn4cc(C#N)cn4)CC[C@@H]32)C1 [Form H]
[1]
  stability of the crystalline form in words: metastable

## C[C@@]1(O)CC[C@H]2[C@H](CC[C@@H]3[C@@H]2CC[C@]2(C)[C@@H](C(=O)Cn4cc(C#N)cn4)CC[C@@H]32)C1 [Forms A, C and K]
[2]; MBTE, 50° C.
  Final Form after slurry conversion: Form C
[2]; MBTE, RT
  Final Form after slurry conversion: Form C
[2]; n-Butanol, 50° C.
  Final Form after slurry conversion: Form C
[2]; n-Butanol, RT
  Final Form after slurry conversion: Form C

## C[C@@]1(O)CC[C@H]2[C@H](CC[C@@H]3[C@@H]2CC[C@]2(C)[C@@H](C(=O)Cn4cc(C#N)cn4)CC[C@@H]32)C1 [Form C]
[3]
  water uptake at 80% RH: 0.12 % by weight
  water uptake at 95% RH: less than 0.30 % by weight
  form change before and after DVS (XRPD): no form change
  hygroscopicity: non-hygroscopic
  water uptake at RH less than or equal to 95%: less than 0.32 weight percent
[4]; 20 ° C., equilibration 2 day
  Solubility: 11.8 mg/mL (≈ 28.8 mM)
[4]; 30 ° C., equilibration 4 h
  Solubility: 14.9 mg/mL (≈ 36.4 mM)
[4]; 40 ° C., equilibration 7 h
  Solubility: 17.9 mg/mL (≈ 43.7 mM)
[4]; 50 ° C., equilibration 20 h
  Solubility: 23.7 mg/mL (≈ 57.9 mM)
[4]; 60 ° C., equilibration 4 h
  Solubility: 29.8 mg/mL (≈ 72.8 mM)
[5]; 5° C., after 1 h
  solid form detected by XRPD in slurry in EtOAc: Form P
[5]; 20° C., after 7 days
  solid form detected by XRPD in slurry in EtOAc: Form P
[5]; EtOAc, across the entire processing temperature range (5-70° C. data)
  relative stability of forms: more stable than Form A
[5]; 20 ° C., 2 day
  Crystal Form Checked by XRPD: No Form Change
[5]; 30 ° C., 4 h
  Crystal Form Checked by XRPD: No Form Change
[5]; 40 ° C., 7 h
  Crystal Form Checked by XRPD: No Form Change
[5]; 50 ° C., 20 h
  Crystal Form Checked by XRPD: No Form Change
[5]; 60 ° C., 4 h
  Crystal Form Checked by XRPD: No Form Change
[2]; estimated from slurry conversion experiments
  transition temperature between Forms A and C: ~17 °C
[2]; from slurry conversion experiments
  transition temperature between Forms K and C: above 100 °C
[2]; slurry conversion in ethyl acetate, n-butanol or methyl tert-butyl ether, room temperature to 50° C.
  thermodynamic stability compared to Form A and Form K: more thermodynamically stable

## C[C@@]1(O)CC[C@H]2[C@H](CC[C@@H]3[C@@H]2CC[C@]2(C)[C@@H](C(=O)Cn4cc(C#N)cn4)CC[C@@H]32)C1 [Form K]
[3]
  water uptake at 80% RH: 0.18 % by weight
  water uptake at 95% RH: less than 0.35 % by weight
  form change before and after DVS (XRPD): no form change
  hygroscopicity: non-hygroscopic
  water uptake at RH less than or equal to 95%: less than 0.35 weight percent

## C[C@@]1(O)CC[C@H]2[C@H](CC[C@@H]3[C@@H]2CC[C@]2(C)[C@@H](C(=O)Cn4cc(C#N)cn4)CC[C@@H]32)C1 [Form I]
[1]
  stability of the crystalline form in words: metastable

## C[C@@]1(O)CC[C@H]2[C@H](CC[C@@H]3[C@@H]2CC[C@]2(C)[C@@H](C(=O)Cn4cc(C#N)cn4)CC[C@@H]32)C1 [Forms A and K]
[2]; Ethyl acetate, 50° C.
  Final Form after slurry conversion: Form C

## C[C@@]1(O)CC[C@H]2[C@H](CC[C@@H]3[C@@H]2CC[C@]2(C)[C@@H](C(=O)Cn4cc(C#N)cn4)CC[C@@H]32)C1 [Form L]
[1]
  stability of the crystalline form in words: metastable

## C[C@@]1(O)CC[C@H]2[C@H](CC[C@@H]3[C@@H]2CC[C@]2(C)[C@@H](C(=O)Cn4cc(C#N)cn4)CC[C@@H]32)C1 [Form J]
[1]
  stability of the crystalline form in words: metastable
[1]; drying at ambient conditions for 3 days
  form after drying (XRPD): transforms to Form A

## C[C@@]1(O)CC[C@H]2[C@H](CC[C@@H]3[C@@H]2CC[C@]2(C)[C@@H](C(=O)Cn4cc(C#N)cn4)CC[C@@H]32)C1 [Form A]
[3]
  water uptake at 80% RH: 0.06 % by weight
  water uptake at 95% RH: less than 0.12 % by weight
  form change before and after DVS (XRPD): no form change
  hygroscopicity: non-hygroscopic
  water uptake at RH less than or equal to 95%: less than 0.30 weight percent
[4]; 20 °C, organic solvent or mixture, thermodynamic from solid, equilibration 2 day
  solubility at 2 day: 12.4 mg/mL (≈ 30.3 mM)
[4]; 30 °C, organic solvent or mixture, thermodynamic from solid, equilibration 4 h
  solubility at 4 h: 15.5 mg/mL (≈ 37.8 mM)
[4]; 40 °C, organic solvent or mixture, thermodynamic from solid, equilibration 7 h
  solubility at 7 h: 18.8 mg/mL (≈ 45.9 mM)
[4]; 50 °C, organic solvent or mixture, thermodynamic from solid, equilibration 20 h
  solubility at 20 h: 25 mg/mL (≈ 61 mM)
[4]; 60 °C, organic solvent or mixture, thermodynamic from solid, equilibration 4 h
  solubility at 4 h: 31.7 mg/mL (≈ 77.4 mM)
[5]; 5° C., after 1 h
  solid form detected by XRPD in slurry in EtOAc: Form P
[5]; 20° C., after 2 days
  solid form detected by XRPD in slurry in EtOAc: Form P
[5]; 20 ° C., 2 day
  Crystal Form Checked by XRPD: No Form Change
[5]; 30 ° C., 4 h
  Crystal Form Checked by XRPD: No Form Change
[5]; 40 ° C., 7 h
  Crystal Form Checked by XRPD: No Form Change
[5]; 50 ° C., 20 h
  Crystal Form Checked by XRPD: No Form Change
[5]; 60 ° C., 4 h
  Crystal Form Checked by XRPD: No Form Change

## C[C@@]1(O)CC[C@H]2[C@H](CC[C@@H]3[C@@H]2CC[C@]2(C)[C@@H](C(=O)Cn4cc(C#N)cn4)CC[C@@H]32)C1 [Form P]
[4]; 5 °C, organic solvent or mixture, thermodynamic from solid, equilibration 20 h
  solubility at 20 h: 5.4 mg/mL (≈ 13.2 mM)
[4]; 10 °C, organic solvent or mixture, thermodynamic from solid, equilibration 3 day
  solubility at 3 day: 6.6 mg/mL (≈ 16.1 mM)
[4]; 15 °C, organic solvent or mixture, thermodynamic from solid, equilibration 2 day
  solubility at 2 day: 8 mg/mL (≈ 19.5 mM)
[4]; 20 ° C., equilibration 2 day
  Solubility: 11.4 mg/mL (≈ 27.8 mM)
[4]; 25 °C, organic solvent or mixture, thermodynamic from solid, equilibration 20 h
  solubility at 20 h: 12.6 mg/mL (≈ 30.8 mM)
[4]; 30 °C, organic solvent or mixture, thermodynamic from solid, equilibration 20 h
  solubility at 20 h: 13.5 mg/mL (≈ 33 mM)
[5]; EtOAc, ≤20° C.
  relative stability of forms: more stable than both Forms A and C; also recorded: more stable than Form C
[5]; EtOAc, ≥35° C.
  stability in EtOAc: converts to Form A
[5]; 5 ° C., 20 h
  Crystal Form Checked by XRPD: Form P
[5]; 10 ° C., 3 day
  Crystal Form Checked by XRPD: Form P
[5]; 15 ° C., 2 day
  Crystal Form Checked by XRPD: Form P
[5]; 20 ° C., 2 day
  Crystal Form Checked by XRPD: No Form Change
[5]; 25 ° C., 20 h
  Crystal Form Checked by XRPD: Form P
[5]; 30 ° C., 20 h
  Crystal Form Checked by XRPD: Form P
[5]; 40 ° C., 24 h
  Crystal Form Checked by XRPD: Form P to Form
[1]; wet cake dried under air at room temperature overnight
  XRPD pattern of dried cake: conforming to Form P
[1]; wet cake dried under vacuum at 40° C. for 3 hours
  XRPD pattern of dried cake: conforming to Form A

## C[C@@]1(O)CC[C@H]2[C@H](CC[C@@H]3[C@@H]2CC[C@]2(C)[C@@H](C(=O)Cn4cc(C#N)cn4)CC[C@@H]32)C1 [Form N]
[1]; overnight, under ambient conditions
  form after storage (XRPD): transforms to Form A

## C[C@@]1(O)CC[C@H]2[C@H](CC[C@@H]3[C@@H]2CC[C@]2(C)[C@@H](C(=O)Cn4cc(C#N)cn4)CC[C@@H]32)C1 [Forms A and K (with Form C seeds)]
[2]; Ethyl acetate, RT
  Final Form after slurry conversion: Form C

## C[C@@]1(O)CC[C@H]2[C@H](CC[C@@H]3[C@@H]2CC[C@]2(C)[C@@H](C(=O)Cn4cc(C#N)cn4)CC[C@@H]32)C1 [Form E]
[1]; drying at ambient (room temperature) conditions
  form after drying (XRPD): transformed to a mixture of Forms A and C that exhibited low crystallinity

— patent US11236121B2, “Crystalline 19-nor C3,3-disubstituted C21-N-pyrazolyl steroid” (priority 2016, dated 2022)
